Measured values as given in article PMC6906348 (Therapeutic Advances in Medical Oncology, 2019).

Test system: patients with advanced HCC
Experiment: Safety: adverse events
Type: in vivo, human
Settings: for ALT increased (AE regardless of study drug relationship) / AST increased (AE regardless of study drug relationship) / Abdominal pain (AE regardless of study drug relationship) / Acute kidney injury (AE regardless of study drug relationship) / Anemia (AE regardless of study drug relationship) / Ascites (AE regardless of study drug relationship) / Blood bilirubin increased (AE regardless of study drug relationship) / Blood creatinine increased (AE regardless of study drug relationship) / Constipation (AE regardless of study drug relationship) / Decreased appetite (AE regardless of study drug relationship) / Diarrhea (AE regardless of study drug relationship) / Fatigue (AE regardless of study drug relationship) / Hyperbilirubinemia (AE regardless of study drug relationship) / Hypoalbuminemia (AE regardless of study drug relationship) / Insomnia (AE regardless of study drug relationship) / Leukopenia (AE regardless of study drug relationship) / Nausea (AE regardless of study drug relationship) / Number of patients with at least one event (AE regardless of study drug relationship) / Peripheral edema (AE regardless of study drug relationship) / Platelet count decreased (AE regardless of study drug relationship) / Pyrexia (AE regardless of study drug relationship) / Vomiting (AE regardless of study drug relationship) / Weight decreased (AE regardless of study drug relationship): patients n (%)
[1] = 300 mg capsule BID n = 9, All grades
[2] = 300 mg capsule BID n = 9, Grades 3/4
[3] = 400 mg tablet BID n = 2, All grades
[4] = 400 mg tablet BID n = 2, Grades 3/4
[5] = 600 mg capsule BID n = 27, All grades

Question: For CNC(=O)c1ccc(-c2cnc3ncc(Cc4ccc5ncccc5c4)n3n2)cc1F [capmatinib], which “predefined qualifying adverse events in dose-determining stage” value (300 mg BID capsules, first 28 days of treatment, six evaluable patients) is on record?
Answer: The value was “No qualifying AEs”.

Question: And the “ALT increased (AE regardless of study drug relationship)” value (shortened to “ALT increased”) [1]?
Answer: Its value is 0.

Question: What about the “AST increased (AE regardless of study drug relationship)” value (“AST increased” for short) [1] of the same compound?
Answer: The value was 1 (11).

Question: And the “Abdominal pain (AE regardless of study drug relationship)” value (“Abdominal pain” below) [1]?
Answer: The value was 2 (22).

Question: And the “Acute kidney injury (AE regardless of study drug relationship)” value (“Acute kidney injury” below) [1]?
Answer: The value was 2 (22).

Question: What about the “Anemia (AE regardless of study drug relationship)” value (“Anemia” for short) [1] of the same compound?
Answer: The value was 3 (33).

Question: And the “Ascites (AE regardless of study drug relationship)” value (“Ascites” for short) [1]?
Answer: Its value is 1 (11).

Question: What about the “Blood bilirubin increased (AE regardless of study drug relationship)” value (from here on “Blood bilirubin increased”) [1] of the same compound?
Answer: The value was 2 (22).

Question: What about the “Blood creatinine increased (AE regardless of study drug relationship)” value (“Blood creatinine increased” below) [1] of the same compound?
Answer: The value was 3 (33).

Question: What about the “Constipation (AE regardless of study drug relationship)” value (“Constipation” below) [1] of the same compound?
Answer: The value was 2 (22).

Question: And the “Decreased appetite (AE regardless of study drug relationship)” value (from here on “Decreased appetite”) [1]?
Answer: Its value is 3 (33).

Question: And the “Diarrhea (AE regardless of study drug relationship)” value (“Diarrhea” for short) [1]?
Answer: Its value is 5 (56).

Question: And the “Fatigue (AE regardless of study drug relationship)” value (shortened to “Fatigue”) [1]?
Answer: Its value is 3 (33).

Question: And the “Hyperbilirubinemia (AE regardless of study drug relationship)” value (shortened to “Hyperbilirubinemia”) [1]?
Answer: Its value is 0.

Question: What about the “Hypoalbuminemia (AE regardless of study drug relationship)” value (from here on “Hypoalbuminemia”) [1] of the same compound?
Answer: Its value is 2 (22).

Question: What about the “Insomnia (AE regardless of study drug relationship)” value (from here on “Insomnia”) [1] of the same compound?
Answer: The value was 1 (11).

Question: And the “Leukopenia (AE regardless of study drug relationship)” value (shortened to “Leukopenia”) [1]?
Answer: The value was 0.

Question: And the “Nausea (AE regardless of study drug relationship)” value (from here on “Nausea”) [1]?
Answer: The value was 6 (67).

Question: And the “Number of patients with at least one event (AE regardless of study drug relationship)” value (“Number of patients” for short) [1]?
Answer: The value was 9 (100).

Question: What about the “Peripheral edema (AE regardless of study drug relationship)” value (“Peripheral edema” for short) [1] of the same compound?
Answer: Its value is 2 (22).

Question: What about the “Platelet count decreased (AE regardless of study drug relationship)” value (shortened to “Platelet count decreased”) [1] of the same compound?
Answer: The value was 0.

Question: And the “Pyrexia (AE regardless of study drug relationship)” value (“Pyrexia” below) [1]?
Answer: The value was 1 (11).

Question: And the “Vomiting (AE regardless of study drug relationship)” value (“Vomiting” for short) [1]?
Answer: The value was 4 (44).

Question: What about the “Weight decreased (AE regardless of study drug relationship)” value (shortened to “Weight decreased”) [1] of the same compound?
Answer: The value was 2 (22).

Question: And the “ALT increased” value [2]?
Answer: Its value is 0.

Question: And the “AST increased” value [2]?
Answer: The value was 1 (11).

Question: And the “Abdominal pain” value [2]?
Answer: The value was 0.

Question: What about the “Acute kidney injury” value [2] of the same compound?
Answer: Its value is 1 (11).

Question: What about the “Anemia” value [2] of the same compound?
Answer: The value was 2 (22).

Question: And the “Ascites” value [2]?
Answer: The value was 0.

Question: And the “Blood bilirubin increased” value [2]?
Answer: The value was 1 (11).

Question: What about the “Blood creatinine increased” value [2] of the same compound?
Answer: The value was 0.

Question: And the “Constipation” value [2]?
Answer: Its value is 0.

Question: What about the “Decreased appetite” value [2] of the same compound?
Answer: The value was 0.

Question: What about the “Diarrhea” value [2] of the same compound?
Answer: The value was 1 (11).

Question: What about the “Fatigue” value [2] of the same compound?
Answer: The value was 0.

Question: And the “Hyperbilirubinemia” value [2]?
Answer: The value was 0.

Question: What about the “Hypoalbuminemia” value [2] of the same compound?
Answer: Its value is 1 (11).

Question: And the “Insomnia” value [2]?
Answer: The value was 0.

Question: And the “Leukopenia” value [2]?
Answer: The value was 0.

Question: What about the “Nausea” value [2] of the same compound?
Answer: The value was 0.

Question: What about the “Number of patients” value [2] of the same compound?
Answer: The value was 5 (56).

Question: And the “Peripheral edema” value [2]?
Answer: The value was 0.

Question: What about the “Platelet count decreased” value [2] of the same compound?
Answer: The value was 0.

Question: And the “Pyrexia” value [2]?
Answer: The value was 0.

Question: What about the “Vomiting” value [2] of the same compound?
Answer: Its value is 1 (11).

Question: And the “Weight decreased” value [2]?
Answer: The value was 0.

Question: What about the “ALT increased” value [3] of the same compound?
Answer: The value was 1 (50).

Question: And the “AST increased” value [3]?
Answer: The value was 0.

Question: What about the “Abdominal pain” value [3] of the same compound?
Answer: The value was 0.

Question: And the “Acute kidney injury” value [3]?
Answer: The value was 0.

Question: And the “Anemia” value [3]?
Answer: Its value is 0.

Question: What about the “Ascites” value [3] of the same compound?
Answer: The value was 0.

Question: What about the “Blood bilirubin increased” value [3] of the same compound?
Answer: The value was 0.

Question: And the “Blood creatinine increased” value [3]?
Answer: Its value is 0.

Question: And the “Constipation” value [3]?
Answer: Its value is 1 (50).

Question: And the “Decreased appetite” value [3]?
Answer: Its value is 0.

Question: And the “Diarrhea” value [3]?
Answer: Its value is 0.

Question: What about the “Fatigue” value [3] of the same compound?
Answer: The value was 1 (50).

Question: What about the “Hyperbilirubinemia” value [3] of the same compound?
Answer: The value was 0.

Question: What about the “Hypoalbuminemia” value [3] of the same compound?
Answer: Its value is 0.

Question: And the “Insomnia” value [3]?
Answer: The value was 1 (50).

Question: And the “Leukopenia” value [3]?
Answer: Its value is 0.

Question: What about the “Nausea” value [3] of the same compound?
Answer: The value was 1 (50).

Question: And the “Number of patients” value [3]?
Answer: The value was 2 (100).

Question: And the “Peripheral edema” value [3]?
Answer: The value was 0.

Question: And the “Platelet count decreased” value [3]?
Answer: The value was 0.

Question: What about the “Pyrexia” value [3] of the same compound?
Answer: The value was 0.

Question: And the “Vomiting” value [3]?
Answer: The value was 1 (50).

Question: And the “Weight decreased” value [3]?
Answer: The value was 0.

Question: What about the “ALT increased” value [4] of the same compound?
Answer: Its value is 1 (50).

Question: What about the “AST increased” value [4] of the same compound?
Answer: The value was 0.

Question: And the “Abdominal pain” value [4]?
Answer: The value was 0.

Question: What about the “Acute kidney injury” value [4] of the same compound?
Answer: The value was 0.

Question: And the “Anemia” value [4]?
Answer: Its value is 0.

Question: And the “Ascites” value [4]?
Answer: Its value is 0.

Question: What about the “Blood bilirubin increased” value [4] of the same compound?
Answer: Its value is 0.

Question: What about the “Blood creatinine increased” value [4] of the same compound?
Answer: Its value is 0.

Question: And the “Constipation” value [4]?
Answer: Its value is 0.

Question: What about the “Decreased appetite” value [4] of the same compound?
Answer: Its value is 0.

Question: What about the “Diarrhea” value [4] of the same compound?
Answer: Its value is 0.

Question: What about the “Fatigue” value [4] of the same compound?
Answer: The value was 0.

Question: What about the “Hyperbilirubinemia” value [4] of the same compound?
Answer: The value was 0.

Question: What about the “Hypoalbuminemia” value [4] of the same compound?
Answer: Its value is 0.

Question: And the “Insomnia” value [4]?
Answer: Its value is 0.

Question: And the “Leukopenia” value [4]?
Answer: The value was 0.

Question: And the “Nausea” value [4]?
Answer: The value was 0.

Question: What about the “Number of patients” value [4] of the same compound?
Answer: Its value is 1 (50).

Question: What about the “Peripheral edema” value [4] of the same compound?
Answer: Its value is 0.

Question: What about the “Platelet count decreased” value [4] of the same compound?
Answer: The value was 0.

Question: What about the “Pyrexia” value [4] of the same compound?
Answer: The value was 0.

Question: What about the “Vomiting” value [4] of the same compound?
Answer: Its value is 0.

Question: And the “Weight decreased” value [4]?
Answer: Its value is 0.

Question: What about the “ALT increased” value [5] of the same compound?
Answer: The value was 6 (22).

Question: And the “AST increased” value [5]?
Answer: The value was 11 (41).
